Drawing on ChEMBL document CHEMBL1131723, “Synthesis and structure-activity relationship of novel glycylcycline derivatives leading to the discovery of GAR-936” (1999), this text covers MIC for nine compounds.

≈ marks a conversion by molar mass, not a printed value. Bounds are passed on as bounds.

Holding throughout (type): functional
Test [1] has as its system Enterococcus. As to the kind of experiment: In vitro antibacterial activity against Enterococcus ATCC 29212.
For test [2], the system named is Escherichia coli. Description: In vitro antibacterial activity against Escherichia coli J3272 Tet C.
Test [3] deals with Escherichia coli. Description: In vitro antibacterial activity against Escherichia coli J3272 Tet D.
The subject of test [4] is Escherichia coli. Description: In vitro antibacterial activity against Escherichia coli PRP1 Tet A.
In test [5] the test system is Escherichia coli. Description: In vitro antibacterial activity against Escherichia coli UBMS 88-1 Tet B.
In test [6] the test system is Escherichia coli. As to the kind of experiment: In vitro antibacterial activity against Escherichia coli UBMS 90-4 Tet M.
Test [7] concerns Escherichia coli. Description: In vitro antibacterial activity against Escherichia coli UBMS 90-5 sensitive.
Test [8] deals with Staphylococcus aureus. As to the kind of experiment: In vitro antibacterial activity against Staphylococcus aureus Smith sensitive.
The subject of test [9] is Staphylococcus aureus. Description: In vitro antibacterial activity against Staphylococcus aureus UBMS 90-1 Tet M.
Test [10] has as its system Staphylococcus aureus. As to the kind of experiment: In vitro antibacterial activity against Staphylococcus aureus UBMS 90-3 sensitive.
Test [11] concerns Staphylococcus aureus. Description: In vitro antibacterial activity against Staphylococcus aureus UBMS 88-7 Tet K.

For `CN(C)c1cc(NC(=O)CN2CCSCC2)c(O)c2c1CC1CC3[C@H](N(C)C)C(=O)C(C(N)=O)=C(O)[C@@]3(O)C(=O)C1=C2O` (some centres undefined), the MIC (usually the smallest concentration in the dilution series that meets the test's criterion for growth inhibition) is 0.25 µg/mL (≈ 0.406 µM) in test [1]; more than 32 µg/mL in [2]; 16 µg/mL (≈ 26 µM) in test [3]; more than 32 µg/mL in [4]; more than 32 µg/mL in test [5]; more than 32 µg/mL in [6]. For the same compound, the minimum inhibitory concentration (MIC) in [7] was more than 32 µg/mL; in test [8], 0.5 µg/mL (≈ 0.812 µM); in test [9], 1 µg/mL (≈ 1.62 µM); in test [10], 1 µg/mL (≈ 1.62 µM); in test [11], 4 µg/mL (≈ 6.5 µM).

For `CCCCCCNCC(=O)Nc1cc(N(C)C)c2c(c1O)C(=O)C1=C(O)[C@]3(O)C(O)=C(C(N)=O)C(=O)[C@@H](N(C)C)C3CC1C2` (some centres undefined), the minimum inhibitory concentration (MIC) in [1] stood at 0.12 µg/mL (≈ 0.196 µM); in test [2], 0.5 µg/mL (≈ 0.815 µM); in test [3], 0.12 µg/mL (≈ 0.196 µM); in test [4] it was 0.5 µg/mL (≈ 0.815 µM); in test [5], 0.5 µg/mL (≈ 0.815 µM); in [6] it was 0.25 µg/mL (≈ 0.407 µM). The MIC in [7] was 0.25 µg/mL (≈ 0.407 µM); in test [8], 0.12 µg/mL (≈ 0.196 µM); in [9], 0.25 µg/mL (≈ 0.407 µM); in test [10], 0.06 µg/mL (≈ 0.0978 µM); in [11] it was 2 µg/mL (≈ 3.26 µM).

For `CN(C)c1cc(NC(=O)CNC2CC2)c(O)c2c1CC1CC3[C@H](N(C)C)C(=O)C(C(N)=O)=C(O)[C@@]3(O)C(=O)C1=C2O` (some centres undefined), the minimal inhibitory concentration (MIC) in test [1] stood at 0.25 µg/mL (≈ 0.439 µM); in test [2], 8 µg/mL (≈ 14 µM); in test [3], 2 µg/mL (≈ 3.51 µM); in [4], 32 µg/mL (≈ 56.2 µM); in [5] it was 4 µg/mL (≈ 7.02 µM); in [6], 2 µg/mL (≈ 3.51 µM). The minimum inhibitory concentration (MIC) was 2 µg/mL (≈ 3.51 µM) in test [7]; 0.25 µg/mL (≈ 0.439 µM) in test [8]; 0.5 µg/mL (≈ 0.878 µM) in test [9]; 0.5 µg/mL (≈ 0.878 µM) in test [10]; 4 µg/mL (≈ 7.02 µM) in [11].

Take `CCCCNCC(=O)Nc1cc(N(C)C)c2c(c1O)C(=O)C1=C(O)[C@]3(O)C(O)=C(C(N)=O)C(=O)[C@@H](N(C)C)C3CC1C2` (some centres undefined): the MIC in test [1] came out at 0.12 µg/mL (≈ 0.205 µM); in test [2], 0.5 µg/mL (≈ 0.854 µM); in [3] it was 0.25 µg/mL (≈ 0.427 µM); in test [4], 1 µg/mL (≈ 1.71 µM); in [5], 0.5 µg/mL (≈ 0.854 µM); in test [6], 0.25 µg/mL (≈ 0.427 µM). For the same compound, the minimal inhibitory concentration (MIC) is 0.5 µg/mL (≈ 0.854 µM) in [7]; 0.12 µg/mL (≈ 0.205 µM) in test [8]; 0.5 µg/mL (≈ 0.854 µM) in test [9]; 0.25 µg/mL (≈ 0.427 µM) in test [10]; 2 µg/mL (≈ 3.41 µM) in test [11].

Consider `CN(C)c1cc(NC(=O)CN2CCCCC2)c(O)c2c1CC1CC3[C@H](N(C)C)C(=O)C(C(N)=O)=C(O)[C@@]3(O)C(=O)C1=C2O` (some centres undefined), for which the MIC in test [1] is 0.06 µg/mL (≈ 0.1 µM); in test [2], 0.25 µg/mL (≈ 0.418 µM); in test [3] it was 0.5 µg/mL (≈ 0.837 µM); in test [4], 1 µg/mL (≈ 1.67 µM); in [5] it was 0.5 µg/mL (≈ 0.837 µM); in [6] it was 0.5 µg/mL (≈ 0.837 µM). The MIC amounted to 0.5 µg/mL (≈ 0.837 µM) in test [7]; 0.12 µg/mL (≈ 0.201 µM) in [8]; 0.25 µg/mL (≈ 0.418 µM) in [9]; 0.12 µg/mL (≈ 0.201 µM) in test [10]; 0.25 µg/mL (≈ 0.418 µM) in [11].

As for `CN(C)c1cc(NC(=O)CNC2CC3CCC2C3)c(O)c2c1CC1CC3[C@H](N(C)C)C(=O)C(C(N)=O)=C(O)[C@@]3(O)C(=O)C1=C2O` (some centres undefined), the minimal inhibitory concentration (MIC) stood at 0.12 µg/mL (≈ 0.192 µM) in test [1]; 0.5 µg/mL (≈ 0.802 µM) in test [2]; 0.25 µg/mL (≈ 0.401 µM) in [3]; 1 µg/mL (≈ 1.6 µM) in test [4]; 0.5 µg/mL (≈ 0.802 µM) in test [5]; 0.5 µg/mL (≈ 0.802 µM) in test [6]. The minimum inhibitory concentration (MIC) came to 0.5 µg/mL (≈ 0.802 µM) in [7]; 0.25 µg/mL (≈ 0.401 µM) in test [8]; 0.5 µg/mL (≈ 0.802 µM) in test [9]; 0.25 µg/mL (≈ 0.401 µM) in test [10]; 0.5 µg/mL (≈ 0.802 µM) in test [11].

Turning to `CCCCCCCCCCCNCC(=O)Nc1cc(N(C)C)c2c(c1O)C(=O)C1=C(O)[C@]3(O)C(O)=C(C(N)=O)C(=O)[C@@H](N(C)C)C3CC1C2` (some centres undefined), the minimum inhibitory concentration (MIC) was determined as 2 µg/mL (≈ 2.92 µM) in test [1]; 32 µg/mL (≈ 46.8 µM) in test [2]; 32 µg/mL (≈ 46.8 µM) in test [3]; 32 µg/mL (≈ 46.8 µM) in test [4]; 32 µg/mL (≈ 46.8 µM) in [5]; 32 µg/mL (≈ 46.8 µM) in test [6]. Further, the minimal inhibitory concentration (MIC) in test [7] came to 16 µg/mL (≈ 23.4 µM); in [8] it was 0.5 µg/mL (≈ 0.731 µM); in test [9], 16 µg/mL (≈ 23.4 µM); in [10], 0.5 µg/mL (≈ 0.731 µM); in [11] it was 2 µg/mL (≈ 2.92 µM).

For `CN(C)c1cc(NC(=O)CNC2CCCCCCC2)c(O)c2c1CC1CC3[C@H](N(C)C)C(=O)C(C(N)=O)=C(O)[C@@]3(O)C(=O)C1=C2O` (some centres undefined), the MIC in test [1] turned out to be 0.25 µg/mL (≈ 0.391 µM); in test [2], 2 µg/mL (≈ 3.13 µM); in test [3], 0.5 µg/mL (≈ 0.782 µM); in test [4], 2 µg/mL (≈ 3.13 µM); in [5], 4 µg/mL (≈ 6.25 µM); in test [6], 2 µg/mL (≈ 3.13 µM). The MIC stood at 4 µg/mL (≈ 6.25 µM) in [7]; 0.5 µg/mL (≈ 0.782 µM) in test [8]; 1 µg/mL (≈ 1.56 µM) in test [9]; 0.25 µg/mL (≈ 0.391 µM) in [10]; 0.5 µg/mL (≈ 0.782 µM) in test [11].

On to `CN(C)c1cc(NC(=O)CNCC2CC2)c(O)c2c1CC1CC3[C@H](N(C)C)C(=O)C(C(N)=O)=C(O)[C@@]3(O)C(=O)C1=C2O` (some centres undefined), for which the MIC in [1] was 0.25 µg/mL (≈ 0.428 µM); in test [2], 0.5 µg/mL (≈ 0.857 µM); in [3], 0.25 µg/mL (≈ 0.428 µM); in [4], 4 µg/mL (≈ 6.85 µM); in test [5], 0.5 µg/mL (≈ 0.857 µM); in test [6] it was 0.5 µg/mL (≈ 0.857 µM). Further, the MIC in test [7] amounted to 0.5 µg/mL (≈ 0.857 µM); in [8] it was 0.5 µg/mL (≈ 0.857 µM); in test [9], 1 µg/mL (≈ 1.71 µM); in [10] it was 0.5 µg/mL (≈ 0.857 µM); in test [11], 4 µg/mL (≈ 6.85 µM).
